Data from US20080027141A1, “1,3-Dihydroxyl-9,10-anthraquinone and 3-[(3-amino)-propoxy]- 9,10-anthraquinone derivatives and pharmaceutical compositions comprising the same” (Kaohsiung Medical University, priority 2006, published 2008).
Read-outs that look alike come from different tables or passages of the source.

Columns and labels:
[1] = tested on: several cancer cell lines; test: Cytotoxic effects against several cancer cell lines in vitro; type: cell-based
Procedure: The cytotoxicity was determined by colorimetric MTT (3-(4,5-dimethylthiazole-2-yl)-2,5-diphenyl-1H-tetrazolium bromide)(Sigma, St. Louis, Mo.) assay as described previously (Wei, Bai-Luh et al. (2000), Eur. J. Med. Chem., 35, 1089-1098). Briefly, cells (5×10^3/well) were plated in 96-well plates and incubated in medium for 6 h, followed by addition of serial dilutions (50 μL/well) of each of the tested compounds. After incubation at 37° C. for 5 or 6 days, the cells were pulsed with 10 μL of MTT (5 mg/mL) and incubated for an additional 4 h at 37° C. Reduced MTT was measured spectrophotometrically using a Dynatech MR 5000 microplate reader (Dynatech Laboratories, Va.) at 550 nm after lysis of cells with 100 μL of 10% SDS in 0.01 M HCl. Control wells contained medium plus cells (total absorbance) or medium alone (background absorbance).

[2] = tested on: HepG2 cells (human hepatoma)
Procedure: (§1) For the microassay, the growth medium was supplemented with 10 mM HEPES buffer (pH 7.3) and incubated at 37° C. in a CO2 incubator.
(§2) The cytotoxicity was determined by colorimetric MTT (3-(4,5-dimethylthiazole-2-yl)-2,5-diphenyl-1H-tetrazolium bromide)(Sigma, St. Louis, Mo.) assay as described previously (Wei, Bai-Luh et al. (2000), Eur. J. Med. Chem., 35, 1089-1098). Briefly, cells (5×10^3/well) were plated in 96-well plates and incubated in medium for 6 h, followed by addition of serial dilutions (50 μL/well) of each of the tested compounds. After incubation at 37° C. for 5 or 6 days, the cells were pulsed with 10 μL of MTT (5 mg/mL) and incubated for an additional 4 h at 37° C. Reduced MTT was measured spectrophotometrically using a Dynatech MR 5000 microplate reader (Dynatech Laboratories, Va.) at 550 nm after lysis of cells with 100 μL of 10% SDS in 0.01 M HCl. Control wells contained medium plus cells (total absorbance) or medium alone (background absorbance). Cell death was calculated as the percentage of MTT inhibition:
(§3) In the experiment, 5-fluorouracil(5-Fu) was used as a positive control.

[3] = tested on: HT-29 cells (human colorectal adenocarcinoma)
Procedure: as §1, §2, §3

[4] = tested on: Hep3B cells (human hepatoma)
Procedure: as §1, §2, §3

[5] = tested on: HT-29 cells (human colorectal adenocarcinoma); test: In vitro anticancer assay (cytotoxicity), MTT, HT-29; conditions: for EC50: Homo sapiens, HT-29, read-out: Cytotoxicity ED50, HT-29
Procedure: as §1, §2, §3

[6] = tested on: HepG2 cells (human hepatoma); test: In vitro anticancer assay (cytotoxicity), MTT, HepG2; conditions: for Cytotoxic activity against HepG2 cells (in words): in vitro; for EC50: Homo sapiens, HepG2, read-out: Cytotoxicity ED50, HepG2
Procedure: as §1, §2, §3

[7] = tested on: Hep3B cells (human hepatoma); test: In vitro anticancer assay (cytotoxicity), MTT, Hep3B; conditions: for EC50: Homo sapiens, Hep3B, read-out: Cytotoxicity ED50, Hep3B
Procedure: as §1, §2, §3

[8] = tested on: MCF-7 cells (human breast adenocarcinoma); test: In vitro anticancer assay (cytotoxicity), MTT, MCF-7; conditions: for EC50: Homo sapiens, MCF7, read-out: Cytotoxicity ED50, MCF-7; for Cytotoxic activity against MCF-7 cells (in words): in vitro
Procedure: as §1, §2, §3

[9] = tested on: MCF-7 cells (human breast adenocarcinoma)
Procedure: as §1, §2, §3

MCF-7 cells [10] = test: Flow cytometry analysis (cell cycle, sub-G1, propidium iodide); type: cell-based, human
Procedure: DNA contents were analyzed by flow cytometry, and apoptosis was measured by the accumulation of sub-G1 DNA contents in cells. Results were representative of three independent experiments; and
Flow cytometry was used to determine the change of cell cycle of human cancer cells caused by the treatment of a compound according to this invention.
MCF cells (1×10^4 cells/mL) were treated with various concentrations (6.9, 13.7, and 27.5 μM) of Compound 16 for different time periods (24 h, 48 h and 72 h), followed by washing with PBS so as to terminate the reaction. After fixation with 4% paraformaldehyde/PBS (pH 7.4) at room temperature for 30 min, the cells were centrifuged at 1,000 rpm for 10 min and then permeabilized with 0.1% Triton-X-100/0.1% sodium citrate at 4° C. for 2 min. Subsequently, propidium iodide (Sigma) in PBS (10 μg/mL) was added to stain the cells at 37° C. for 30 min. The intensity of fluorescence was measured with a FACScan flow cytometer (Becton Dickinson, Mountain View, Calif.). A minimum of 5000 cell counts was collected for the analysis by LYSIS II Software.
It has been recognized that apoptotic cells have reduced DNA stainability with a variety of fluorochromes (Ojeda, F. et al. (1990), Cell Immunol., 125:535-539; Afanasev, V. N. et al. (1986), FEBS Lett., 194: 347-350). The appearance of cells with low DNA stainability forms a “sub-G1 peak”, which has been considered to be the hallmark of cell death by apoptosis (Darzynkiewicz, Z. et al. (1992), Cytometry, 13, 795-808). […] In this invention, the applicants proposed that the NHA derivatives might induce cell death by the same way. MCF-7 cells were treated with different concentrations of representative Compound 16 for different time periods.

MCF-7 cells [11] = test: DNA fragmentation assay (agarose gel electrophoresis); type: cell-based, human; conditions: 48 and 72 h incubation, 6.9, 13.7 and 27.5 μM
Procedure: Results were representative of three independent experiments.
DNA fragmentation in general is used to characterize cell death by apoptosis (Wyllic, A. H. et al. (1980), Int. Rev. Cytol., 68:251-306; Arends, M. J. and Wyllic, A. H. (1991), Int. Rev. Exp. Pathol., 32:223-254). Apoptosis of MCF-7 cells after treatment with the representative Compound 16 was also studied by DNA fragmentation assay.
MCF cells (1×10^4 cells/mL) in 150-mm plates were treated with various concentrations (6.9, 13.7, and 27.5 μM) of Compound 16 for different time periods (24 h, 48 h and 72 h), followed by washing with PBS so as to terminate the reaction. After the addition of 100 μL lysis buffer [1% of NP-40 (Sigma) in 20 mM EDTA, 50 mM Tris-HCl, pH 7.5] and mixing, the resultant cell lysates were centrifuged at 14,000 rpm for 5 min and the supernatants were collected. The supernatants were incubated with 50 μL of RNase A (20 mg/mL) and 20 μL of SDS (10%) at 56° C. for 2 h. Thereafter, 35 μL of proteinase K (20 mg/mL) was added and the resultant mixture was incubated at 37° C. overnight. DNA fragments were precipitated after the addition of 150 μL of 10M NH4OAc and 1.2 mL of 100% ethanol at −20° C. overnight. After centrifuging and drying, the thus-obtained DNA pellets were re-suspended in 15 μL Tris-EDTA buffer and electrophoresed on a 1% agarose gel in TBE buffer at 30 V for 8 h. […]

[12] = tested on: Hep3B cells (human hepatoma); conditions: Wei, Bai-Luh et al. (2000); read-out: ED50, Hep3B (applicants' earlier study); cited from earlier work
[13] = tested on: HepG2 cells (human hepatoma); conditions: Wei, Bai-Luh et al. (2000); read-out: ED50, HepG2 (applicants' earlier study); cited from earlier work

Row | SMILES | EC50 [8] | EC50 [5] | EC50 [6] | EC50 [7] | other results
1 | O=C1c2ccccc2C(=O)c2c(O)cc(O)cc21 [Compound 1, 1,3-dihydroxy-9,10-anthraquinone] |  |  |  |  | Cytotoxic effects against several cancer cell lines (in words) [1]: failed to show cytotoxic effects
2 | O=C1c2ccccc2C(=O)c2c(O)cc(OCCCBr)cc21 [Compound 2, 1-hydroxy-3-(3-bromopropoxy)-9,10-anthraquinone] |  |  |  |  | Cytotoxic activity against HepG2 cells (in words) [2]: no significant cytotoxic activity; Cytotoxic activity against HT-29 cells (in words) [3]: no significant cytotoxic activity; Cytotoxic activity against Hep3B cells (in words) [4]: no significant cytotoxic activity
3 | O=C1c2ccccc2C(=O)c2cc(O)ccc21 [Compound 3, 3-hydroxy-9,10-anthraquinone] |  |  |  |  | Cytotoxic activity against HT-29 cells (in words) ([5]; in vitro): no significant cytotoxic activity; Cytotoxic activity against HepG2 cells (in words) [6]: no significant cytotoxic activity; Cytotoxic activity against Hep3B cells (in words) ([7]; in vitro): no significant cytotoxic activity
4 | O=C1c2ccccc2C(=O)c2cc(OCCCBr)ccc21 [Compound 4, 3-(3-bromopropoxy)-9,10-anthraquinone] |  |  |  |  | Cytotoxic activity against HepG2 cells (in words) [2]: no significant cytotoxic activity; Cytotoxic activity against HT-29 cells (in words) [3]: no significant cytotoxic activity; Cytotoxic activity against Hep3B cells (in words) [4]: no significant cytotoxic activity
5 | CC(C)=CCc1c(O)cc(O)c2c1C(=O)c1ccccc1C2=O [Compound 5, 1,3-Dihydroxy-4-prenyl-9,10-anthraquinone] | 172 µM | 56.2 µM | 1.23 ± 0.05 µM | 9.09 µM | Cytotoxic activity against HepG2 cells (in words) [6]: potent cytotoxicity
6 | O=c1[nH]cc(F)c(=O)[nH]1 [Compound 5-FU, 5-fluorouracil, reference compound] |  | 0.57 µM | 0.25 µM | 0.55 µM | 
7 | CC(C)NCCCOc1cc(O)c2c(c1)C(=O)c1ccccc1C2=O [Compound 6, 1-Hydroxy-3-[3-(isopropylamino)-propoxy]-9,10-anthraquinone] |  | 4.72 µM | 5.52 µM | 5.97 µM | 
8 | CC(C)(C)NCCCOc1cc(O)c2c(c1)C(=O)c1ccccc1C2=O [Compound 7, 3-[3-(tert-Butylamino)-propoxy]-1-hydroxy-9,10-anthraquinone] |  | 7.93 µM | 5.3 µM | 6.8 µM | 
9 | CCCCNCCCOc1cc(O)c2c(c1)C(=O)c1ccccc1C2=O [Compound 8, 3-[3-(Butylamino)-propoxy]-1-hydroxy-9,10-anthraquinone] |  | 6.52 µM | 4.42 µM | 7.93 µM | 
10 | CCN(CC)CCCOc1ccc2c(c1)C(=O)c1ccccc1C2=O [Compound 9, 3-[3-(Diethylamino)-propoxy]-9,10-anthraquinone] | 16.1 µM | 11.9 µM | 17.2 µM | 12.8 µM | 
11 | CCCNCCCOc1ccc2c(c1)C(=O)c1ccccc1C2=O [Compound 10, 3-[3-(Propylamino)-propoxy]-9,10-anthraquinone] | 8.36 µM | 6.19 µM | 8.92 µM | 12.4 µM | 
12 | CC(C)NCCCOc1ccc2c(c1)C(=O)c1ccccc1C2=O [Compound 11, 3-[3-(Isopropylamino)-propoxy]-9,10-anthraquinone] | 11.5 µM | 7.12 µM | 5.39 µM | 11.5 µM | Cytotoxic activity against HepG2 cells (in words) [2]: potent cytotoxic activity
13 | CCCCNCCCOc1ccc2c(c1)C(=O)c1ccccc1C2=O [Compound 12, 3-[3-(Butylamino)-propoxy]-9,10-anthraquinone] | 10.4 µM | 14.5 µM | 7.12 µM | 14.2 µM | 
14 | CC(C)CNCCCOc1ccc2c(c1)C(=O)c1ccccc1C2=O [Compound 13, 3-[3-(Isobutylamino)-propoxy]-9,10-anthraquinone] | 14.2 µM | 7.72 µM | 10.4 µM | 9.26 µM | 
15 | CC(C)(C)NCCCOc1ccc2c(c1)C(=O)c1ccccc1C2=O [Compound 14] |  |  |  |  | EC50 [9]: 20.8 µM; EC50 [2]: 17.5 µM; EC50 [3]: 12.9 µM; EC50 [4]: 23.2 µM
16 | O=C1c2ccccc2C(=O)c2cc(OCCCNC3CCCCC3)ccc21 [Compound 15, 3-[3-(Cyclohexylamino)-propoxy]-9,10-anthraquinone] | 5.79 µM | 3.86 µM | 16 µM | 4.96 µM | Cytotoxic activity against MCF-7 cells (in words) [8]: stronger cytotoxic activities; Cytotoxic activity against HT-29 cells (in words) [3]: stronger cytotoxic activities; Cytotoxic activity against Hep3B cells (in words) [4]: stronger cytotoxic activities
17 | CN1CCN(CCCOc2ccc3c(c2)C(=O)c2ccccc2C3=O)CC1 [Compound 16] | 3.02 µM | 4.67 µM | 8.41 µM | 13.7 µM | Cytotoxic activity against MCF-7 cells (in words) [8]: potent cytotoxic activity; Cytotoxic activity against HepG2 cells (in words) [2]: less potent cytotoxic activity; Cytotoxic activity against HT-29 cells (in words) [3]: potent cytotoxic activity; Cytotoxic activity against Hep3B cells (in words) [4]: less potent cytotoxic activity; cell cycle effect (MCF-7 cells [10]; 6.9, 13.7, 27.5 μM): arrest G2/M and S phases; sub-G1 peak in DNA histograms (MCF-7 cells [10]; 6.9, 13.7, 27.5 μM, 24, 48, 72 h): detected; maximum apoptosis cells (MCF-7 cells [10]; at 72 h): 19.97%; DNA fragmentation (MCF-7 cells [11]): significantly observed
18 | CN(C)CCCOc1cc(O)c2c(c1)C(=O)c1ccccc1C2=O [Compound 19, 1-hydroxy-3-[3-(dimethylamino)-propoxy]-9,10-anthraquinone] |  |  |  |  | EC50 [12]: ~7.1 µM; EC50 [13]: ~2.6 µM
